What was measured:
Pseudomonas aeruginosa = experiment: antibiogram by diffusion on Mueller-Hinton agar with antibiotic wafers; format: cell-based; details: Table C1, six wafers, disk loads of Table B
Protocol: (§1) The inoculum was prepared by making a suspension of bacteria directly from colonies put into solution in tubes of sterile water so that the solution presented accurate opacity as determined with a spectrophotometer equivalent to the opacity of a 0.5 standard in the McFarland range. This bacterial suspension concentration is standardized since a more concentrated inoculum would lead to smaller diameters for the inhibition zone, and vice versa.
(§2) The inoculum corresponds to concentrations of about 10^8 CFU/mL for Escherichia coli, Klebsiella pneumoniae, Proteus mirabilis, Klebsiella oxytoca, Enterobacter cloacea, Enterobacter aerogenes, Entercoccus faecalis, Pseudomonas aeruginosa, Staphylococcus aureus, and Staphylococcus epidermidis. These are the ten species bacteria that are encountered the most frequently in human pathologies.
(§3) 1.2) The bacterial sample was deposited on a solid culture medium in a petri dish having a diameter of 90 mm or in a square dish having a side of 120 mm, the medium being constituted by a Mueller-Hinton agar specific for (EUCAST) antibiograms. Ideally, it should be used in the 15 minutes (min) following preparation of the suspension.
(§4) Seeding was done by the method of diffusion on an agar medium by flooding in which excess bacterial suspension was added to the Mueller-Hinton agar. After homogenizing, excess liquid was discarded in order to avoid over-inoculating the dishes. It is necessary to wait beforehand for the surface of the agar to be dry in order to eliminate any trace of moisture encouraging bacterial invasion.
(§5) The disks of the antibiotic wafers were deposited within 15 min after inoculating the agar. The antibiotic impregnated disks were deposited using an automatic dispenser that placed the disks firmly on the surface of the inoculated and dried agar. The number of disks deposited per dish was limited because of inhibition zone overlap and in order to limit interference between antibiotics. It is important for the inhibition diameters to be measurable. The antibiograms were then incubated at 37° C. for 18 hours (h) to 24 h.
(§6) The antibiotic wafers were made of high quality absorbent paper with a diameter of 6 mm and they were impregnated with antibiotics at concentrations in the range 1 micrograms (μg) to 300 μg approximately, depending on the antibiotic.
(§7) In the examples below, reference disks were used as sold by the suppliers i2a (Montpellier, France), BD (Becton Dickinson, USA), Bio-Rad (Hercules, USA), Biomerieux (Marcy l′Etoile, France) containing the following antibiotics and carrying the following codes and the following doses: AMX (amoxicillin) 25 μg: AMC (amoxicillin-clavulanic acid) 20 μg-10 μg; GM for gentamicin, 15 μg; SXT (trimethoprim-sulfamethoxazole) 1.25/23.75 μg; TIC (ticarcillin) 75 μg; TCC (ticarcillin-clavulanic acid) […]; TZP (piperacillin-tazobactam) 75/10 μg; CAZ (ceftazidime) 30 μg; IMP or IPM (imipeneme) 10 μg; COL (colistin) 50 μg; FOX (cefoxitine) 30 μg; VAN (vancomycin) 30 μg; TEC (teicoplanin) 30 μg; CLI or DA (clindamycin) 2 μg; CRO (ceftriaxone) 30 μg; CIP (ciprofloxacin) 5 μg; OFX (ofloxacin) 5 μg; CTX (cefotaxime) 5 μg; AN or AK (amikacin) 30 μg; TM (tobramycin) 10 μg; FOX (cefoxitine) 30 μg; ATM (aztreonam) 30 μg; ERT (ertapenem) 10 μg; FF (fosfomycin) 200 μg; DO (doxycycline) 30 μg; K (kanamycin) 1000 μg; L (lincomycin) 15 μs; LNZ (linezolid) 10 μg; AN (nalidixic acid) 30 μg; NOR (norfloxacin) 10 μg; PT (pristinamycin) 15 μg; RA (rifampicin) 5 μg; and E (erythromycin) 15 μg.

Klebsiella pneumoniae = experiment: as above; format: cell-based; details: for resistance (I, R) or sensitivity (S): Table C1, six wafers, disk loads of Table B; for resistant (I/R) or sensitive (S): Table C2, sixteen wafers, square dish
Protocol: as §1, §2, §3, §4, §5, §6, §7

Proteus mirabilis = experiment: as above; format: cell-based; details: Table C1, six wafers, disk loads of Table B
Protocol: as §1, §2, §3, §4, §5, §6, §7

Enterobacter aerogenes = experiment: as above; format: cell-based; details: Table C1, six wafers, disk loads of Table B
Protocol: as §1, §2, §3, §4, §5, §6, §7

Enterobacter cloacea = experiment: as above; format: cell-based; details: Table C1, six wafers, disk loads of Table B
Protocol: as §1, §2, §3, §4, §5, §6, §7

Escherichia coli = experiment: as above; format: cell-based; details: for resistance (I, R) or sensitivity (S): Table C1, disk loads of Table B; for resistant (I/R) or sensitive (S): Table C2, square dish
Protocol: as §1, §2, §3, §4, §5, §6, §7

Klebsiella oxytoca = experiment: as above; format: cell-based; details: Table C1; K. oxytoca phenotype Wild; six wafers, disk loads of Table B
Protocol: as §1, §2, §3, §4, §5, §6, §7

BSBL bacteria = details: all of the BSBL bacteria in Table C1
Text: Synergies are generated with the method on agar by the antibiotics diffusing in the agar as a result of the fact that providing the distance between two antibiotics is small enough (in the range 2 centimeters (cm) to 2.5 cm for Gram negative bacteria) they are capable of diffusing over a common portion of the agar, and as a result it is the association of the two antibiotics in this specific location that makes it possible, where appropriate, to see the appearance of a new inhibition zone, which is the synergy zone.
In the event of synergy occurring, it is possible to see mechanisms of synergy between two antibiotics since an additional inhibition zone appears generally between the two antibiotics in question. It may be in the form of an enlargement of the diameter around the disk A going towards the disk B if A and B present mutual synergy.
The BSBL phenotype includes a synergy phenotype between ceftriaxone and clavulanic acid, and thus between CRO and TCC or AMC (for all of the BSBL bacteria in the table).

[1] = P. aeruginosa Abnormal phenotype
[2] = P. aeruginosa phenotype Carbapenemase
[3] = P. aeruginosa phenotype Penicillinase
[4] = P. aeruginosa phenotype Selective imipenem permeability
[5] = P. mirabilis phenotype Hl cephalosporinase
[6] = P. mirabilis phenotype Hl penicillinase
[7] = P. mirabilis phenotype Inhibitor resistant penicillinase
[8] = P. mirabilis phenotype Ll penicillinase
[9] = E. coli phenotype BSBL, six wafers
[10] = E. coli phenotype Carbapenemase, six wafers
[11] = E. coli phenotype Hl cephalosporinase, six wafers
[12] = E. coli phenotype Hl penicillinase, six wafers
[13] = E. coli phenotype Inhibitor resistant penicillinase, six wafers
[14] = E. coli phenotype Ll penicillinase, six wafers
[15] = E. coli phenotype Wild, six wafers in a circle

Compound: CO/N=C(\C(=O)N[C@@H]1C(=O)N2C(C(=O)[O-])=C(C[N+]3(C)CCCC3)CS[C@H]12)c1csc(N)n1 [FEP, cefepime]
- resistance (I, R) or sensitivity (S) (Pseudomonas aeruginosa; [1]): R
- resistance (I, R) or sensitivity (S) (Pseudomonas aeruginosa; P. aeruginosa phenotype BSBL): I/R
- resistance (I, R) or sensitivity (S) (Pseudomonas aeruginosa; [2]): R
- resistance (I, R) or sensitivity (S) (Pseudomonas aeruginosa; [3]): S
- resistance (I, R) or sensitivity (S) (Pseudomonas aeruginosa; [4]): S
- resistance (I, R) or sensitivity (S) (Pseudomonas aeruginosa; P. aeruginosa phenotype Wild): S
- resistance (I, R) or sensitivity (S) (Klebsiella pneumoniae; K. pneumoniae phenotype BSBL): R
- resistance (I, R) or sensitivity (S) (Klebsiella pneumoniae; K. pneumoniae phenotype Carbapenemase): R
- resistance (I, R) or sensitivity (S) (Klebsiella pneumoniae; K. pneumoniae phenotype Hl cephalosporinase): S
- resistance (I, R) or sensitivity (S) (Klebsiella pneumoniae; K. pneumoniae phenotype Hl penicillinase): S
- resistance (I, R) or sensitivity (S) (Klebsiella pneumoniae; K. pneumoniae phenotype Ll penicillinase): S
- resistance (I, R) or sensitivity (S) (Klebsiella pneumoniae; K. pneumoniae phenotype Wild): S
- resistance (I, R) or sensitivity (S) (Proteus mirabilis; [5]): R
- resistance (I, R) or sensitivity (S) (Proteus mirabilis; [6]): S
- resistance (I, R) or sensitivity (S) (Proteus mirabilis; [7]): S
- resistance (I, R) or sensitivity (S) (Proteus mirabilis; [8]): S
- resistance (I, R) or sensitivity (S) (Proteus mirabilis; P. mirabilis phenotype Wild): S
- resistance (I, R) or sensitivity (S) (Enterobacter aerogenes; E. aerogenes phenotype BSBL): R/I
- resistance (I, R) or sensitivity (S) (Enterobacter aerogenes; E. aerogenes phenotype Wild): S
- resistance (I, R) or sensitivity (S) (Enterobacter cloacea; E. cloacae phenotype BSBL): R
- resistance (I, R) or sensitivity (S) (Enterobacter cloacea; E. cloacae phenotype Wild): S
- resistance (I, R) or sensitivity (S) (Escherichia coli; [9]): R
- resistance (I, R) or sensitivity (S) (Escherichia coli; [10]): R
- resistance (I, R) or sensitivity (S) (Escherichia coli; [11]): R
- resistance (I, R) or sensitivity (S) (Escherichia coli; [12]): S
- resistance (I, R) or sensitivity (S) (Escherichia coli; [13]): S
- resistance (I, R) or sensitivity (S) (Escherichia coli; [14]): S
- resistance (I, R) or sensitivity (S) (Escherichia coli; [15]): S
- resistance (I, R) or sensitivity (S) (Klebsiella oxytoca): S

Compound: ticarcillin-clavulanic acid [TCC]
- resistance (I, R) or sensitivity (S) (Pseudomonas aeruginosa; [1]): R
- resistance (I, R) or sensitivity (S) (Pseudomonas aeruginosa; P. aeruginosa phenotype BSBL): I/R
- resistance (I, R) or sensitivity (S) (Pseudomonas aeruginosa; [2]): R
- resistance (I, R) or sensitivity (S) (Pseudomonas aeruginosa; [3]): I/R
- resistance (I, R) or sensitivity (S) (Pseudomonas aeruginosa; [4]): S
- resistance (I, R) or sensitivity (S) (Pseudomonas aeruginosa; P. aeruginosa phenotype Wild): S
- resistant (I/R) or sensitive (S) (Klebsiella pneumoniae; K. pneumoniae phenotype Cephalosporinase + R to aminosides + R to cotrimoxazole): R
- resistant (I/R) or sensitive (S) (Klebsiella pneumoniae; K. pneumoniae phenotype Wild): R
- resistance (I, R) or sensitivity (S) (Proteus mirabilis; [5]): R
- resistance (I, R) or sensitivity (S) (Proteus mirabilis; [6]): I
- resistance (I, R) or sensitivity (S) (Proteus mirabilis; [7]): R
- resistance (I, R) or sensitivity (S) (Proteus mirabilis; [8]): S
- resistance (I, R) or sensitivity (S) (Proteus mirabilis; P. mirabilis phenotype Wild): S
- synergy zone between two antibiotic wafers placed side by side (Escherichia coli; E. coli cephalosporinase phenotype (FIGS. 2D, 2E)): absence of a zone of synergy
- synergy zone between two antibiotic wafers placed side by side (Escherichia coli; E. coli strain of BSBL phenotype, champagne-cork shaped inhibition zone): presence of a zone of synergy
- resistance (I, R) or sensitivity (S) (Escherichia coli; [9]): R
- resistance (I, R) or sensitivity (S) (Escherichia coli; [10]): R
- resistance (I, R) or sensitivity (S) (Escherichia coli; [11]): R
- resistance (I, R) or sensitivity (S) (Escherichia coli; [12]): I/R
- resistance (I, R) or sensitivity (S) (Escherichia coli; [13]): R
- resistance (I, R) or sensitivity (S) (Escherichia coli; [14]): S
- resistance (I, R) or sensitivity (S) (Escherichia coli; [15]): S
- resistant (I/R) or sensitive (S) (Escherichia coli; E. coli phenotype Cephalosporinase + R to fluoroquinolones + R to cotrimoxazole + partial R to aminosides, sixteen wafers): R
- resistant (I/R) or sensitive (S) (Escherichia coli; E. coli phenotype Hl penicillinase + R to fluoroquinolones + R to cotrimoxazole + partial R to aminosides, sixteen wafers): I
- resistant (I/R) or sensitive (S) (Escherichia coli; E. coli phenotype Wild, sixteen wafers in a rectangular grid): S
- synergy phenotype between antibiotics (BSBL bacteria): synergy

Source: patent US10837044B2, “Automated method for analyzing and interpreting an antimicrobial susceptibility” (FONDATION MEDITERRANEE INFECTION, priority 2014, dated 2020)
